# “And” between values parts separate entries of the source, which are not always exact repeats. Identical values can stand only once.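 Test compounds were applied to cells in 96-well plates for 48 hours at 5 doses. GI50: concentration for 50% inhibition of growth. TGI marks complete inhibition of growth.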
# Tests used:
# Assay in all cases: DTP human tumour cell line panel, 48 h
# COLO 205 colon = system: COLO 205 colon
# MALME-3M melanoma = system: MALME-3M melanoma
# U251 CNS = system: U251 CNS
# RPMI-8226 leukemia = system: RPMI-8226 leukemia
# A549 NSCLC = system: A549 NSCLC
# SK-MEL-5 melanoma = system: SK-MEL-5 melanoma
# NCI-H226 lung = system: NCI-H226 lung
# HOP-62 NSCLC = system: HOP-62 NSCLC
# K-562 leukemia = system: K-562 leukemia
# UACC-257 melanoma = system: UACC-257 melanoma
SMILES,GI50 (COLO 205 colon) [nM],TGI (COLO 205 colon),GI50 (MALME-3M melanoma) [µM],TGI (MALME-3M melanoma) [µM],GI50 (U251 CNS) [nM],TGI (U251 CNS) [µM],GI50 (RPMI-8226 leukemia) [nM],TGI (RPMI-8226 leukemia) [µM],GI50 (A549 NSCLC) [nM],TGI (A549 NSCLC) [µM],GI50 (SK-MEL-5 melanoma) [nM],TGI (SK-MEL-5 melanoma),GI50 (NCI-H226 lung) [µM],TGI (NCI-H226 lung) [µM],GI50 (HOP-62 NSCLC) [µM],TGI (HOP-62 NSCLC) [µM],GI50 (K-562 leukemia) [nM],TGI (K-562 leukemia) [µM],GI50 (UACC-257 melanoma) [µM],TGI (UACC-257 melanoma) [µM]
CN(C)CC(=O)N1CCC(c2ccc(NC(=O)c3ncc(C#N)[nH]3)c(C3=CCCCC3)c2)CC1,4430,14.1 µM,4.3,16.1,4660,16.9,8760,34.6,5000,17.2,3500,13.4 µM,11.3,24.2,7.07,19.4,3210,12,2.17,4.8
CN(C)/C(=N/C(=S)Nc1ccccc1)SCc1ccccc1,,> 100 µM,,> 100,,> 100,,> 100,,> 100,,> 100 µM,,> 100,,> 100,,> 100,,> 100
Cc1cc2nc3c4cc(Cl)ccc4n(CCN(C)C)c3nc2cc1C,1280,3.24 µM,1.72,3.33,1430,3.14,1550,4.12,1510,4.17,1800,3.22 µM,1.98,4.24,1.53,4.57,1360,4.03,1.76,3.59
Cc1ccc2c(C(C[N+](=O)[O-])c3cccs3)c(-c3ccccc3)[nH]c2c1 (stereo not drawn),2460,12.6 µM,1.55,6.12,1720,7.59,2050,23.7,2730,15.1,1070,4.21 µM,3.38,8.61,2.25,11.7,1160,> 33.3,3.88,13.7
O=C(Nc1nc2ccccc2s1)OCC(F)(F)F,> 100000,> 100 µM,> 100,> 100,> 100000,> 100,> 100000,> 100,> 100000,> 100,> 100000,> 100 µM,> 100,> 100,> 100,> 100,> 100000,> 100,> 100,> 100
CCCCCCCCCCCCC(=O)OC(c1cnco1)c1nc(C(O)CC(O)C(O)C(C)O)co1 (stereo not drawn),587,1.98 µM and 3.52 µM,3.61,> 100,720,> 62.8,694,29.2,880,> 100,1450,9.66 µM and 6.95 µM,0.28,,,> 100,426,> 100,5.16,> 83
C=C1C(O)C2CCC(C)(C)C(=O)C2=C(CC(C)C)C12CC2 (stereo not drawn),22700,53.6 µM,35.6,> 100,43400,> 100,22300,56.8,93300,> 100,24800,> 100 µM,43.5,> 100,76.6,> 100,31900,> 100,88,> 100

# — PubChem BioAssay (NCI)
